According to the NIST ThermoML archive (doi:10.1016/j.fluid.2016.02.031):

Assay: refractive index (Na D-line) (dimensionless); xn = mol fraction of the nth substance listed
Conditions: 100 kPa, Liquid, Standard Abbe refractometry

c1ccncc1 [pyridine] + CCC(C)=O
refractive index
Conditions | 288.15 K | 293.15 K | 298.15 K | 303.15 K | 308.15 K | 313.15 K | 318.15 K | 323.15 K | 328.15 K | 333.15 K
x1 = 0.1006 | 1.39357 | 1.39094 | 1.3883 | 1.38577 | 1.38311 | 1.38031 | 1.37775 | 1.37505 | 1.37234 | 1.36942
x1 = 0.2019 | 1.40586 | 1.40321 | 1.40056 | 1.39791 | 1.39527 | 1.3926 | 1.38992 | 1.38721 | 1.38453 | 1.38158
x1 = 0.3002 | 1.41813 | 1.41548 | 1.41282 | 1.41015 | 1.40751 | 1.40483 | 1.40214 | 1.39946 | 1.39666 | 1.39394
x1 = 0.4004 | 1.43104 | 1.42836 | 1.42568 | 1.42298 | 1.4203 | 1.4176 | 1.41489 | 1.41218 | 1.40942 | 1.40669
x1 = 0.4999 | 1.44407 | 1.44138 | 1.43868 | 1.43597 | 1.43325 | 1.43052 | 1.42779 | 1.42502 | 1.42228 | 1.41944
x1 = 0.597 | 1.45674 | 1.45401 | 1.4513 | 1.44857 | 1.44585 | 1.44311 | 1.44039 | 1.43765 | 1.43488 | 1.43213
x1 = 0.6998 | 1.4705 | 1.46776 | 1.46502 | 1.46227 | 1.45952 | 1.45678 | 1.45404 | 1.4513 | 1.44853 | 1.44586
x1 = 0.7945 | 1.48331 | 1.48055 | 1.47779 | 1.47504 | 1.47226 | 1.4695 | 1.46675 | 1.46402 | 1.46124 | 1.45866
x1 = 0.8962 | 1.49734 | 1.49455 | 1.49176 | 1.48899 | 1.4862 | 1.48343 | 1.48066 | 1.47793 | 1.47513 | 1.4726
x1 = 1 | 1.51204 | 1.50923 | 1.50636 | 1.50355 | 1.50076 | 1.49796 | 1.49522 | 1.49245 | 1.48962 | 1.48708

OCCCO [propan-1,3-diol] + CCC(C)=O
refractive index
Conditions | 288.15 K | 293.15 K | 298.15 K | 303.15 K | 308.15 K | 313.15 K | 318.15 K | 323.15 K | 328.15 K | 333.15 K
x1 = 0.1052 | 1.38816 | 1.3857 | 1.38318 | 1.38072 | 1.3783 | 1.37575 | 1.37324 | 1.3706 | 1.36798 | 1.36512
x1 = 0.2004 | 1.39411 | 1.39177 | 1.38937 | 1.38701 | 1.38469 | 1.38226 | 1.37988 | 1.37728 | 1.37479 | 1.37205
x1 = 0.3002 | 1.40019 | 1.39791 | 1.39561 | 1.39336 | 1.39119 | 1.38891 | 1.38656 | 1.38422 | 1.38186 | 1.3793
x1 = 0.4003 | 1.40646 | 1.4043 | 1.40216 | 1.40002 | 1.39791 | 1.39575 | 1.39357 | 1.39132 | 1.38903 | 1.38657
x1 = 0.4999 | 1.41261 | 1.41059 | 1.40857 | 1.40654 | 1.40452 | 1.40246 | 1.40036 | 1.39822 | 1.39608 | 1.3938
x1 = 0.5992 | 1.41868 | 1.4168 | 1.4149 | 1.41298 | 1.41104 | 1.4091 | 1.40712 | 1.40508 | 1.40306 | 1.40096
x1 = 0.6992 | 1.42474 | 1.42295 | 1.42116 | 1.41936 | 1.41754 | 1.41566 | 1.41382 | 1.41196 | 1.41006 | 1.4081
x1 = 0.7989 | 1.43046 | 1.42881 | 1.42712 | 1.42544 | 1.42374 | 1.42201 | 1.4203 | 1.41857 | 1.4168 | 1.41497
x1 = 0.8998 | 1.43588 | 1.43434 | 1.43277 | 1.43123 | 1.42967 | 1.42812 | 1.42654 | 1.42496 | 1.42335 | 1.42166
x1 = 1 | 1.44073 | 1.43932 | 1.43792 | 1.43654 | 1.43513 | 1.43375 | 1.43232 | 1.43087 | 1.42945 | 1.42803
